{
  "source": "patent US20110045139A1",
  "about": "“FERMENTED SAUSAGE AND METHODS OF MAKING SAME” (priority 2009, published 2011)",
  "key": {"Staphylococcus carnosus": {"test_system": "Staphylococcus carnosus", "assay": "microbe, parasite or virus in culture", "type": "cell-based", "details": "pH 5.5"}, "[1]": {"test_system": "E. coli O157:H7 (5-strain cocktail)", "assay": "microbe, parasite or virus in culture", "type": "cell-based, Escherichia coli O157:H7", "details": "for MBC / Growth inhibition (p < 0.05): pH 5.5"}, "Pediococcus pentosaceus": {"test_system": "Pediococcus pentosaceus", "assay": "microbe, parasite or virus in culture", "type": "cell-based", "details": "pH 5.5"}, "E. coli O157:H7 [2]": {"test_system": "E. coli O157:H7", "details": "pH 4.9; cited from earlier work"}, "E. coli O157:H7 [3]": {"test_system": "E. coli O157:H7", "assay": "In vitro formation of isothiocyanates by myrosinase, viable counts", "type": "cell-based, Escherichia coli O157:H7", "details": "glucosinolate 2.5 mM plus myrosinase 0.2 U/tube, MHB with sausage ingredients"}, "E. coli O157:H7 [4]": {"test_system": "E. coli O157:H7", "assay": "Minimum inhibitory concentration at dry-cured sausage pH", "type": "cell-based, Escherichia coli O157:H7", "details": "pH 5.5"}, "[5]": {"test_system": "Escherichia coli, Staphylococcus aureus, Campylobacter jejuni, Pseudomonas aeruginosa, Salmonella Enteritidis, Listeria monocytogenes, Shigella boydii and …", "details": "cited from earlier work"}},
  "note": "Where two headings read alike, the source gives them in different places.",
  "data": [
    {"smiles": "C=CCN=C=S", "note": "[AIT, allyl isothiocyanate]", "values": [
      {"measurement": "MBC", "setting": "Staphylococcus carnosus; Staphylococcus carnosus, 18 h", "result": 1040, "unit": "µM"},
      {"measurement": "Growth inhibition (p < 0.05)", "setting": "Staphylococcus carnosus", "result": 0.26, "unit": "mM"},
      {"measurement": "MBC", "setting": "[1]; Escherichia coli, 18 h", "result": 1040, "unit": "µM"},
      {"measurement": "Growth inhibition (p < 0.05)", "setting": "[1]", "result": 0.26, "unit": "mM"},
      {"measurement": "MBC", "setting": "Pediococcus pentosaceus; Pediococcus pentosaceus, 18 h", "result": 20800, "unit": "µM"},
      {"measurement": "Growth inhibition (p < 0.05)", "setting": "Pediococcus pentosaceus", "result": 10.40, "unit": "mM"},
      {"measurement": "minimum inhibitory concentration", "setting": "E. coli O157:H7 [2]", "result": "~250", "unit": "µM"}
    ]},
    {"smiles": "C=CCC(=NOS(=O)(=O)O)S[C@@H]1O[C@H](CO)[C@@H](O)[C@H](O)[C@H]1O", "note": "(stereo in doubt) [sinigrin]", "values": [
      {"measurement": "time after which E. coli was not detectable", "setting": "E. coli O157:H7 [3]", "result": 2, "unit": "days"}
    ]},
    {"smiles": "OCc1ccc(O)cc1", "note": "[ρ-HBA, ρ-hydroxybenzyl alcohol]", "values": [
      {"measurement": "inhibitory activity against E. coli O157:H7", "setting": "[1]", "result": "very weak"},
      {"measurement": "Growth inhibition (p < 0.05)", "setting": "[1]", "result": 20.14, "unit": "mM"}
    ]},
    {"smiles": "Oc1ccc(CN=C=S)cc1", "note": "[ρ-HBIT, ρ-hydroxybenzyl isothiocyanate]", "values": [
      {"measurement": "minimum inhibitory concentration", "setting": "E. coli O157:H7 [4]", "result": "~600", "unit": "µM"},
      {"measurement": "Growth inhibition (p < 0.05)", "setting": "Staphylococcus carnosus", "result": 0.3, "unit": "mM"},
      {"measurement": "MBC", "setting": "Staphylococcus carnosus", "result": 590, "unit": "µM"},
      {"measurement": "Growth inhibition (p < 0.05)", "setting": "[1]", "result": 0.59, "unit": "mM"},
      {"measurement": "MBC", "setting": "[1]", "result": 1480, "unit": "µM"},
      {"measurement": "Growth inhibition (p < 0.05)", "setting": "Pediococcus pentosaceus", "result": 1.48, "unit": "mM"},
      {"measurement": "MBC", "setting": "Pediococcus pentosaceus", "result": 5920, "unit": "µM"},
      {"measurement": "bactericidal concentration", "setting": "[5]", "result": "0.35 to 2.13", "unit": "mM"}
    ]},
    {"smiles": "O=S(=O)(O)O/N=C(/Cc1ccc(O)cc1)S[C@@H]1O[C@H](CO)[C@@H](O)[C@H](O)[C@H]1O", "note": "[sinalbin]", "values": [
      {"measurement": "time after which E. coli was not detectable", "setting": "E. coli O157:H7 [3]", "result": 3, "unit": "days"}
    ]}
  ]
}
